From ChEMBL document CHEMBL1201862, “PubChem BioAssay data set” (2004)
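These data come from cells grown in 96-well plates and exposed to compound for 48 hours at five concentrations. Here, GI50 denotes the concentration required for 50% inhibition of growth.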 Activity calls are given as the source filed them. Rule as the data show it: active = GI50 up to about 1.1 µM and inactive = higher.

Assays:
Test in all cases: NCI tumour cell line growth inhibition, 48 h
[1] = system: 786-0
[2] = system: BT-549
[3] = system: DU-145
[4] = system: HCT-116
[5] = system: HCT-15
[6] = system: Hs-578T
[7] = system: IGROV-1
[8] = system: K562
[9] = system: KM12
[10] = system: LOX IMVI
[11] = system: MCF7
[12] = system: MDA-N
[13] = system: NCI-H460
[14] = system: OVCAR-3
[15] = system: PC-3
[16] = system: SF-539
[17] = system: SNB-75
[18] = system: UACC-257
[19] = system: HL-60
[20] = system: SR

SMILES | GI50 [1] | GI50 [2] | GI50 [3] | GI50 [4] | GI50 [5] | GI50 [6] | GI50 [7] | GI50 [8] | GI50 [9] | GI50 [10] | GI50 [11] | GI50 [12] | GI50 [13] | GI50 [14] | GI50 [15] | GI50 [16] | GI50 [17] | GI50 [18] | GI50 [19] | GI50 [20]
O=C(/C=C/c1ccc(O)c(O)c1)OCCc1ccc2ccccc2c1 | 8.59 µM (inactive) | 2.91 µM (inactive) | 11.9 µM (inactive) | 5.24 µM (inactive) | 2.49 µM | 4.79 µM (inactive) | 2.32 µM (inactive) | 2.99 µM (inactive) | 3.64 µM (inactive) | 6.98 µM (inactive) | 2.74 µM (inactive) | 2.38 µM (inactive) | 7.05 µM (inactive) | 3.26 µM (inactive) | 7.55 µM (inactive) | 5.83 µM (inactive) | 1.87 µM (inactive) | 11 µM (inactive) |  | 
CC1(C)N(OC2CCCCO2)C(c2ccccc2)C(c2ccccc2)=[N+]1[O-] (stereo not drawn) | > 100 µM (inactive) | > 100 µM (inactive) |  | 60.3 µM (inactive) | > 100 µM | 94 µM (inactive) | > 100 µM (inactive) | 58.9 µM (inactive) | 93.5 µM (inactive) | > 100 µM (inactive) | > 100 µM (inactive) | > 100 µM (inactive) | 66.7 µM (inactive) | 54.3 µM (inactive) | 52.2 µM (inactive) | > 100 µM (inactive) | 20.1 µM (inactive) | > 100 µM (inactive) | 8.93 µM (inactive) | 27 µM (inactive)
COc1cc(/C=C2/SC(c3ccccc3)N(c3cccc([N+](=O)[O-])c3)C2=O)cc(OC)c1OC (stereo not drawn) | > 100 µM (inactive) | > 100 µM (inactive) | > 100 µM (inactive) | 61.4 µM (inactive) | > 100 µM | > 100 µM (inactive) |  | > 100 µM (inactive) | 95.1 µM (inactive) | > 100 µM (inactive) | 46.2 µM (inactive) | 25.1 µM (inactive) | > 100 µM (inactive) | > 100 µM (inactive) |  | > 100 µM (inactive) |  | > 100 µM (inactive) | 60.8 µM (inactive) | 
CCNc1cc2c3c(c1)CCN3CCC2 | > 10 µM (inactive) |  | > 10 µM (inactive) | > 10 µM (inactive) | > 10 µM | > 10 µM (inactive) | > 10 µM (inactive) | 1.72 µM (inactive) | 5.6 µM (inactive) | > 10 µM (inactive) | > 10 µM (inactive) | > 10 µM (inactive) | > 10 µM (inactive) | > 10 µM (inactive) | > 10 µM (inactive) | > 10 µM (inactive) | > 10 µM (inactive) | > 10 µM (inactive) | 3.23 µM (inactive) | 5.32 µM (inactive)
NNC(=O)Cc1cccnc1 | > 100 µM (inactive) | > 100 µM (inactive) | > 100 µM (inactive) | > 100 µM (inactive) | > 100 µM | > 100 µM (inactive) | > 100 µM (inactive) | > 100 µM (inactive) | > 100 µM (inactive) | > 100 µM (inactive) | > 100 µM (inactive) | > 100 µM (inactive) | > 100 µM (inactive) | > 100 µM (inactive) | > 100 µM (inactive) | > 100 µM (inactive) | > 100 µM (inactive) | > 100 µM (inactive) | > 100 µM (inactive) | 
C=CCC1(C#N)C(=S)NC2=C(C(=O)CC(C)(C)C2)C1c1ccccc1 (stereo not drawn) | 35.9 µM (inactive) | 66.7 µM (inactive) | 19.2 µM (inactive) | 59.4 µM (inactive) | 70.1 µM |  | 55.1 µM (inactive) | 82.2 µM (inactive) | 32.7 µM (inactive) | 68.9 µM (inactive) |  | 70.6 µM (inactive) |  |  | 32.2 µM (inactive) | 77.8 µM (inactive) | 27 µM (inactive) |  | > 100 µM (inactive) | 50.6 µM (inactive)
O[C@@H]1[C@H](OC2c3ccccc3-c3ccccc32)[C@H](OCc2ccccc2)[C@@H]2OC[C@H]1O2 | 19.7 µM (inactive) | > 100 µM (inactive) | > 100 µM (inactive) | 41.5 µM (inactive) | > 100 µM | 43.4 µM (inactive) | > 100 µM (inactive) | > 100 µM (inactive) | > 100 µM (inactive) | > 100 µM (inactive) | > 100 µM (inactive) | > 100 µM (inactive) |  | > 100 µM (inactive) | 63.2 µM (inactive) | 23 µM (inactive) |  | > 100 µM (inactive) | > 100 µM (inactive) | 
CC[C@@]1(CCC(=O)NCCc2c[nH]c3ccccc23)CCC(=O)N2CCc3c([nH]c4ccccc34)[C@H]21 | 11.7 µM (inactive) | 4.31 µM (inactive) | 29 µM (inactive) | 11.8 µM (inactive) | 20 µM |  | 4.04 µM (inactive) | 7.45 µM (inactive) | 4.19 µM (inactive) | 27.4 µM (inactive) | 4.44 µM (inactive) | 12.6 µM (inactive) | 6.89 µM (inactive) | 24.5 µM (inactive) | 5.56 µM (inactive) | 12 µM (inactive) |  | 14 µM (inactive) |  | 
CO[C@]12C[C@H](CNC(=O)c3cc(Br)c(Br)[nH]3)O[C@H]1NC(=O)N2 | > 100 µM (inactive) | > 100 µM (inactive) | > 100 µM (inactive) | > 100 µM (inactive) | > 100 µM | > 100 µM (inactive) | > 100 µM (inactive) | > 100 µM (inactive) | > 100 µM (inactive) | > 100 µM (inactive) | > 100 µM (inactive) |  | > 100 µM (inactive) | > 100 µM (inactive) | > 100 µM (inactive) | > 100 µM (inactive) | > 100 µM (inactive) | > 100 µM (inactive) | > 100 µM (inactive) | > 100 µM (inactive)
Nc1cc2ncnc(Nc3cccc(Br)c3)c2cn1 | 19.5 µM (inactive) | > 100 µM (inactive) |  | 49.5 µM (inactive) | 12.3 µM | 33.7 µM (inactive) | > 10 µM (inactive) | > 100 µM (inactive) | 22.2 µM (inactive) | 38 µM (inactive) |  | 31 µM (inactive) | 30 µM (inactive) | 15.8 µM (inactive) | 28.5 µM (inactive) | 21.9 µM (inactive) | 33.7 µM (inactive) | 39.9 µM (inactive) | > 100 µM (inactive) | > 100 µM (inactive)
COc1ccc(CNc2cc(=O)n(C)c(=O)[nH]2)cc1 | > 100 µM (inactive) | > 100 µM (inactive) |  | > 100 µM (inactive) | > 100 µM | > 100 µM (inactive) | > 100 µM (inactive) | > 100 µM (inactive) | > 100 µM (inactive) | > 100 µM (inactive) | > 100 µM (inactive) | > 100 µM (inactive) | > 100 µM (inactive) | > 100 µM (inactive) | > 100 µM (inactive) | > 100 µM (inactive) | 33.3 µM (inactive) | > 100 µM (inactive) |  | > 100 µM (inactive)
N#Cc1c(-c2ccc(Cl)cc2)cc(-c2ccc(Nc3ccnc4cc(C(F)(F)F)ccc34)cc2)nc1N | 15 µM (inactive) | 63 µM (inactive) | 28.1 µM (inactive) | 10.6 µM (inactive) | 17.9 µM |  | 29.2 µM (inactive) | 14.5 µM (inactive) | > 100 µM (inactive) | 3.72 µM (inactive) | 28.8 µM (inactive) | 32.8 µM (inactive) | 32.8 µM (inactive) |  | 32.9 µM (inactive) | 18.5 µM (inactive) | 23 µM (inactive) | > 100 µM (inactive) |  | 3.74 µM (inactive)
OC(c1cccs1)c1cc2ccccc2s1 (stereo not drawn) | > 10 µM (inactive) |  | > 10 µM (inactive) | > 10 µM (inactive) | > 10 µM | > 10 µM (inactive) | > 10 µM (inactive) | > 10 µM (inactive) | > 10 µM (inactive) | > 10 µM (inactive) | > 10 µM (inactive) | > 10 µM (inactive) | > 10 µM (inactive) | > 10 µM (inactive) | > 10 µM (inactive) | > 10 µM (inactive) | > 10 µM (inactive) | > 10 µM (inactive) | > 10 µM (inactive) | > 10 µM (inactive)
COc1ccc(C2C3CCc4ccccc4C3=NN2S(=O)(=O)c2ccc(/C=C/C(=O)O)cc2)cc1 (stereo not drawn) | 1.82 µM (inactive) | 10.4 µM (inactive) | 22.1 µM (inactive) | 3.53 µM (inactive) | 0.188 µM |  | 0.755 µM (active) | 2.84 µM (inactive) | 1.82 µM (inactive) | 4.73 µM (inactive) | 2.1 µM (inactive) | 1.42 µM (inactive) | 3.52 µM (inactive) | 3.99 µM (inactive) | 3.98 µM (inactive) | 2.3 µM (inactive) |  |  | 3.07 µM (inactive) | 0.869 µM (active)
O=C(c1cccc(C(=O)c2ccc3c4c(cccc24)C(=O)N(c2ccccc2)C3=O)c1)c1ccc2c3c(cccc13)C(=O)N(c1ccccc1)C2=O | > 100 µM (inactive) | > 100 µM (inactive) | > 100 µM (inactive) | > 100 µM (inactive) | > 100 µM | 52.8 µM (inactive) | 63.7 µM (inactive) | > 100 µM (inactive) | > 100 µM (inactive) | 23.3 µM (inactive) | 28.2 µM (inactive) | > 100 µM (inactive) | > 100 µM (inactive) | > 100 µM (inactive) | > 100 µM (inactive) | > 100 µM (inactive) | > 100 µM (inactive) | 72.8 µM (inactive) |  | 
COc1ccc(NC(/C(C(=O)c2ccccc2)=C(\O)C(=O)/C=C(\O)c2ccccc2)c2ccc(OC)cc2)cc1 (stereo not drawn) | 31 µM (inactive) | 71.6 µM (inactive) | 41.6 µM (inactive) | 35.8 µM (inactive) | 42.1 µM | 36 µM (inactive) | 35 µM (inactive) | 44.3 µM (inactive) | 30.9 µM (inactive) |  | 39.5 µM (inactive) |  | 43.6 µM (inactive) | 21.6 µM (inactive) | 39.3 µM (inactive) | 38.8 µM (inactive) | 17.8 µM (inactive) | 40.7 µM (inactive) | 34.1 µM (inactive) | 31.6 µM (inactive)
